For orientation: pKd means the negative decadic logarithm of the Kd, by convention in mol/L.

pKd: −log10 of the molar value.

Results on one molecule are retold here after patent publication US11026957B2, “Method to treat lipid dysregulation by modulation of proprotein convertase subtilisin/kexin type 9 (PCSK9) protein activity with small molecule ligands” (SRX CARDIO, LLC, priority 2014, dated 2021).

For the test, the target named is recombinant human PCSK9 (Homo sapiens, UniProt Q8NBP7). Briefly: Direct binding measurement by backscatter interferometry. The following applies: 6-point binding curve, ±8 nM, r^2 of 0.86. On the procedure:
Direct binding was measured using backscatter interferometry, which has been previously described in “Interferometric detection system and method” (EP 1210581), “Free solution measurement of molecular interactions by backscattering interferometry” (WO 2009039466), “Temperature-stable interferometer” (WO 2009076372), and “Improved event detection for back-scattering interferometry” (WO 2013158300); which are incorporated herein in their entirety by reference.

Sequence of recombinant human PCSK9 (Q8NBP7 153-692): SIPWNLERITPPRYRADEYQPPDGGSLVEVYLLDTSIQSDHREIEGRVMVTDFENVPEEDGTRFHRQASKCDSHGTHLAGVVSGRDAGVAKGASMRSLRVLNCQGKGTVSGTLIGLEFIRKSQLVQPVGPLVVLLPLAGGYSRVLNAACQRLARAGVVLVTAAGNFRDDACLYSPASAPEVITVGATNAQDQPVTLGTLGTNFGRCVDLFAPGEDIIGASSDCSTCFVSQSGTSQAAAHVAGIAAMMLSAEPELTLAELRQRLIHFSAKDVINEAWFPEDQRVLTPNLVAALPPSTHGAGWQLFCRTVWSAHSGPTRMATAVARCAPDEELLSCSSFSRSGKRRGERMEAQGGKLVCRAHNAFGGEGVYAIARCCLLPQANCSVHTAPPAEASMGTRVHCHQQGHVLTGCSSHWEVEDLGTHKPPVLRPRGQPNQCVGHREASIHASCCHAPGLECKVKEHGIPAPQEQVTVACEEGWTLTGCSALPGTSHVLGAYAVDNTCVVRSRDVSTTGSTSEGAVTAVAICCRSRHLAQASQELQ

For the molecule `C/C(=N\Nc1nnn[nH]1)C(=O)N1CCC(c2ccccc2)CC1` [SRX200, (E)-2-(2-(1H-tetrazol-5-yl)hydrazono)-1-(4-phenylpiperidin-1-yl)propan-1-one], the negative-log Kd (pKd) was 7.62.
